Measurements: patent US20250302802A1, “METHODS AND COMPOSITIONS” (VRG 145 ZRT., priority 2024, published 2025)
Where two headings read alike, the source gives them in different places.

Columns and labels:
[1] = tested on: face allodynia in the infraorbital nerve ligation model; assay: Partial infraorbital nerve ligation model, reversal of face allodynia (head withdrawal threshold, von Frey); assay type: in vivo; details: Rattus norvegicus, po; per os; mean (S.E.M.); individual maximum post-dose reversals; combination in terms of doses of the individual components; read-out: ED50 (effective dose causing 50% reversal of the allodynia)
Description: Infraorbital nerve ligation models, either by partial ligation or by the loose ligation of the whole nerve (chronic constriction injury) have been used as models of trigeminal neuralgia or trigeminal neuropathic pain. […] Male Sprague-Dawley rats weighing 200-220 g at surgery and 290-390 g at the time of testing were used. As primary read-outs of tactile pain sensitivity of the face, head withdrawal thresholds were measured by repeated stimulations using von Frey filaments (Touch Test Sensory Probes, Stoelting®). Before surgery, the rats were habituated to the testing for two weeks, first by handling (for 2 days) and then by repeated touching with von Frey filaments and finally determination of 50% head withdrawal thresholds (HWT) on three consecutive days. Rats with HWT<10 g at 2 out of 3 pre-surgery tests were not enrolled in the study. Sensitivity of the orofacial region was tested using calibrated von Frey filaments, with a series of filaments with bending force ranging between 0.4-14.8 g. […] HWTs were determined using Chaplan's up-down method, starting with the filament of 2 g bending force. […] The evaluated post-dose data (HWTs in gram) were converted to percent reversals, taking the simultaneous post-dose average HWT value of the vehicle treated group as 0% and the pre-surgery average value of animals involved in the test substance-treated group as 100%.

[2] = tested on: periorbital allodynia in the dural inflammation model; assay: Dural inflammation (inflammatory soup) model, reversal of periorbital allodynia (periorbital threshold, von Frey); assay type: in vivo, rat; details: 90 min post-dose; for reversal of allodynia at the medium dose level: solo 0.6 mg/kg per os
Description: Male Sprague-Dawley rats weighing approximately 250 g at surgery were used. Rats were habituated and trained for 1-2 weeks and then fitted with a stainless-steel cannula (22GA, Plastics One) under isoflurane anesthesia. […] Special attention was given not to disturb the dura. A custom flange guide cannula (22GA, Plastics One) was inserted into the hole (cut 0.5 mm below pedestal). The cannula was fixed to the bone with small screws and dental cement. A dummy that extended just past the end of the guide cannula was inserted to prevent scar tissue from forming, and thus clogging the cannula. Animals were allowed 1-2 weeks of recovery before testing and infusions began. Periorbital thresholds (POT) were monitored 7-10 days after surgery to ensure the thresholds generally returned to pre-surgery baselines.
While under isoflurane anesthesia, the infusion procedure proceeded over 5 consecutive days in which a Hamilton syringe attached to an infusion pump was used to deliver 15 μL of inflammatory soup over 8 minutes, at a rate of 1.759 μL/min. The Hamilton syringe was connected to tubing with a custom cannula injector at the tip; the syringe, tubing line, and injector were filled to the tip with inflammatory soup solution. The custom cannula injector was inserted into the flange cannula and the infusion started. The inflammatory soup contained 2 mM histamine, 2 mM bradykinin, 2 mM serotonin, and 0.2 mM prostaglandin E2 dissolved in saline.
Only animals that developed sustained hypersensitivity and satisfied the periorbital sensitivity criteria (POT<2.5 g) were enrolled into the study and each week into test groups.
Sensory testing was performed on testing days using von Frey filaments (Stoelting®, Wood Dale, Illinois) with reproducible calibrated buckling forces varying from 0.4-10 g utilizing Chaplan's up-down method. The specific fibers utilized were 3.61 (0.4 g), 3.84 (0.6 g), 4.08 (1 g), 4.31 (2 g), 4.56 (4 g), 4.74 (6 g), 4.93 (8 g), and 5.07 (10 g); 4.31 (2 g) was the starting fiber. Allodynia was tested by gently restraining the rat in the investigator's hand by holding the rat in one hand with fingers just behind the left forepaw, keeping the animal pressed against the investigator's chest. Fibers were applied by perpendicularly touching the rostral portion of the periorbital region (below the lower eye margin close to the rostral corner) causing slight buckling of the filament for approximately 5 seconds. Based on the response pattern and the force of the final filament, the withdrawal threshold (g) was calculated.
On testing days, a blinded investigator tested periorbital sensitivity pre-dose, 45 min, 90 min, and 135 min after drug administration. […]

[3] = Pharmacokinetic interaction study of lisinopril and memantine; assay type: in vivo; details: rat, serum
Description: The statistical significance of differences between corresponding solo treatment and combination treatment mean values was evaluated by Student's unpaired t-test. The areas under the curve between TO (time of dosing) and last tested timepoint (135 min) were also calculated to assess the drug exposures in each animal (Table 2).

cardiovascular system = assay: Cardiovascular telemetry in awake unrestrained normotensive rats; assay type: in vivo, rat; details: for Heart rate; difference from Vehicle treated, Mean / Mean arterial blood pressure; difference from Vehicle treated, Mean: oral gavage, post-dose period of 3-6 hours
Description: The cardiovascular parameters of normotensive rats instrumented with telemetric devices were investigated to determine whether the observed in vivo pharmacodynamic synergy exists also for cardinal side effects of the drug components of the combination. As lisinopril is an antihypertensive drug, its vasodilator and antihypertensive effects or other related cardiovascular effects may be cardinal side effects. Therefore, a cardiovascular telemetry study was performed with lisinopril, memantine and their combination in rats. Male Sprague-Dawley rats weighing 250-300 g at the start of the investigations were used. The animals were housed individually in artificially lightened chambers with a 12 h light and dark cycle (lights on at 07:00) and an ambient temperature of 20-22° C. Radiotelemetric units comprising transmitters with built in sensors (Data Sciences International, USA, Type: HD-S11) were surgically implanted into rats under sodium pentobarbital (50 mg/kg, i.p.) induced anesthesia. The rat abdomen was opened by a midline laparotomy. After visualizing the aorta, it was separated from the vena cava just caudal to the left dorsal muscular branch. A piece of 5-0 suture was placed between the vena cava and aorta so that the suture lied underneath the aorta. By this suture the aorta was temporarily occluded, and the catheter introduced into the vessel. After drying the aorta around the catheter entry site, a small amount of tissue adhesive was applied and 5-10 seconds later the suture was loosened. The bipolar ECG leads were tunneled subcutaneously into Lead II position and fixed with surgical sutures. Closure of the abdomen and skin was followed by 7 days recovery period. […] Drug tests were performed on 8 rats used repeatedly according to a 4-way crossover design, carried out in three sessions. In each session, all the 8 animals were treated and tested on 4 occasions with 3- or 4-days washout periods between treatments (i.e. Mondays and Thursdays in two weeks), so that on each occasion 4 pairs of rats were treated with 4 types of treatment (vehicle control, test substance A, test substance B and combination A+B), and during the 4 occasions all the animals were given all the 4 types of treatment according to a Latin-square 4-way crossover design. In the three consecutive 2-week-long sessions, three dose levels of test substances were tested in an escalating order. […] For evaluation and data reduction, pre-dose 10-min, post-dose 30-min segment averages were calculated and plotted (FIG. 5). […] None of the test substance treatments caused any apparent effect on the body temperature as compared to vehicle control data. The stress of handling and oral gavage administration caused a transient increase in both blood pressure and heart rate as indicated by changes in the vehicle treated data. However, after these transient changes, blood pressure and heart rate returned to the pre-dose level in the vehicle control group. […] For within session statistical analysis of differences from vehicle control, one-way ANOVA followed by Dunnett's test was used.

[4] = tested on: central nervous system (horizontal locomotor activity); assay: Locomotor activity test; assay type: in vivo, rat; details: 60-90 minutes post-dose
Text: Memantine is a neurological drug with neurological side effects at high doses, such as sedative or dissociative or psychotomimetic side effects in humans, and locomotion stimulating and motor coordination impairing effects in rodents. Therefore, as a further test to see if pharmacodynamic synergy exists also for cardinal side effects of the drug components of the combination two central nervous system side effect assessing pharmacodynamic interaction studies (locomotor activity and rotarod tests) were performed with lisinopril, memantine and their combination in rats. Male Sprague Dawley rats weighing 200-250 g at start of testing were used. Animals were acclimatized to the laboratory conditions for at least 5 days before the first experiment and kept under artificial lighting between 7:00 and 19:00 in a controlled ambient temperature of 22±2° C. One hundred animals were assigned to ten treatment groups, which were tested in parallel with appropriate randomization, time shifts and cohorts needed to exploit the capacity of test apparatus. […] Corresponding dose levels of the combination were half of the doses of the solo drug treatments. […] The test substances were dissolved in physiological saline for dosing volume of […]. The test substances were administered per os by gavage. First, the locomotor test was carried out. One week later, the same animals received the same treatment and were tested in the rotarod test. The locomotor activity test detects stimulant or sedative activity. The activity meter consisted of 16 covered Plexiglas cages (40×25×25 cm) contained within a darkened enclosure and connected to silent electronic counters. Each cage was equipped with four photocell assemblies (two at each end of the cage) 3 cm above the floor to measure the number of movements by each animal (one per cage) in the horizontal plane. The number of (horizontal) crossings by each animal (one per cage) from one pair of photocells to the other was recorded by computer in 10-minute intervals. […] The cumulated events in the period of 60-90 minutes post-dose were evaluated.

[5] = tested on: central nervous system (rotarod performance); assay: Accelerating rotarod test; assay type: in vivo, rat; details: any of the three dose levels: 0.6, 2, 6 mg/kg solo; 0.3+0.3, 1+1, 3+3 mg/kg combination; per os; 45 and 90 min post-dose
Description: Animals were acclimatized to the laboratory conditions for at least 5 days before the first experiment and kept under artificial lighting between 7:00 and 19:00 in a controlled ambient temperature of 22±2° C. One hundred animals were assigned to ten treatment groups, which were tested in parallel with appropriate randomization, time shifts and cohorts needed to exploit the capacity of test apparatus. The test groups comprised nine test substance treated groups, of three treatment types (lisinopril, memantine and their 1:1 combination), each administered at three dose levels, and a vehicle control group for comparison. Corresponding dose levels of the combination were half of the doses of the solo drug treatments. Thus, the tested dose levels were 0.6, 2 and 6 mg/kg for the solo treatments and 0.3+0.3, 1+1 and 3+3 mg/kg for the combination. The test substances were dissolved in physiological saline for dosing volume of 5 mg/kg. The test substances were administered per os by gavage. […] One week later, the same animals received the same treatment and were tested in the rotarod test.
The rotarod test detects neurological deficits. Rats were placed on a rod (diameter: 7 cm) rotating at a constant speed of 4 revolutions per minute for a 2-minute period. When they fell off during this period they were replaced on the rod. […] The latency to fall off was recorded (cut-off: 3 minutes). […]

[6] = Lisinopril 0.3 mg/kg, read-out: Concentration of Lisinopril, Mean
[7] = Lisinopril 1 mg/kg, read-out: Concentration of Lisinopril, Mean
[8] = dose 0.3 mg/kg (combination containing the same dose of lisinopril)
[9] = dose 1 mg/kg (combination containing the same dose of lisinopril)
[10] = dose 3 mg/kg (combination containing the same dose of lisinopril)
[11] = Memantine 0.3 mg/kg, read-out: Concentration of Memantine, Mean
[12] = Memantine 1 mg/kg, read-out: Concentration of Memantine, Mean

## NCCCC[C@H](N[C@@H](CCc1ccccc1)C(=O)O)C(=O)N1CCC[C@H]1C(=O)O [Lisinopril, (S)-1-[N2-(1-carboxy-3-phenylpropyl)-L-lysyl]-L-proline]
[1]
  ED50: 0.488 mg/kg
[2]; per os
  ED40 (effective dose causing 40% reversal of the allodynia): 1.85 mg/kg
[2]
  reversal of allodynia at the medium dose level: around 15%
[3]; [6]
  concentration at 45 min: 5.75 ng/mL
  concentration at 90 min: 9.44 ng/mL
  concentration at 135 min: 14.2 ng/mL
[3]; [7]
  concentration at 45 min: 9.86 ng/mL
  concentration at 90 min: 43 ng/mL
  concentration at 135 min: 57 ng/mL
[3]; dose 0.3 mg/kg, read-out: Mean AUC (AUC0-135 min) of Lisinopril, Solo (converted)
  AUC(0-t): 16.7 ng·h/mL
[3]; dose 1 mg/kg, read-out: Mean AUC (AUC0-135 min) of Lisinopril, Solo (converted)
  AUC(0-t): 61 ng·h/mL
Cardiovascular system; almost dose-independently, 0.3-3 mg/kg
  suppression of the blood pressure: about 7 mmHg
Cardiovascular system; [8]
  Heart rate; difference from Vehicle treated, Mean: 8.37 beats per min
  Mean arterial blood pressure; difference from Vehicle treated, Mean: −7.05 mmHg
Cardiovascular system; [9]
  Heart rate; difference from Vehicle treated, Mean: 20.62 beats per min
  Mean arterial blood pressure; difference from Vehicle treated, Mean: −7.47 mmHg
Cardiovascular system; [10]
  Heart rate; difference from Vehicle treated, Mean: 29.39 beats per min
  Mean arterial blood pressure; difference from Vehicle treated, Mean: −7.72 mmHg
[4]; any of the three dose levels: 0.6, 2, 6 mg/kg solo, 0.3+0.3, 1+1, 3+3 mg/kg combination, per os
  effect on the locomotor activity: neither lisinopril nor the combination exerted a significant effect
[5]
  effect on rotarod performance (latency to fall off): neither lisinopril, nor memantine, nor their combination had a significant effect

## CC12CC3CC(C)(C1)CC(N)(C3)C2 [Memantine, 1-amino-3,5-dimethyladamantane]
[1]
  ED50: 0.478 mg/kg
[2]; per os 0.2, 0.6 and 2 mg/kg
  reversing effect on the allodynia (percent reversal): ≤ 15%
[2]
  reversal of allodynia at the medium dose level: around 15%
[3]; [11]
  concentration at 45 min: 5.58 ng/mL
  concentration at 90 min: 8.46 ng/mL
  concentration at 135 min: 8.91 ng/mL
[3]; [12]
  concentration at 45 min: 11.4 ng/mL
  concentration at 90 min: 22.3 ng/mL
  concentration at 135 min: 24.2 ng/mL
[3]; dose 0.3 mg/kg, read-out: Mean AUC (AUC0-135 min) of Memantine, Solo (converted)
  AUC(0-t): 13.9 ng·h/mL
[3]; dose 1 mg/kg, read-out: Mean AUC (AUC0-135 min) of Memantine, Solo (converted)
  AUC(0-t): 34.4 ng·h/mL
Cardiovascular system; 0.3, 1 and 3 mg/kg, combination compared with lisinopril
  effect on hemodynamic parameters (blood pressure, heart rate): no effect
Cardiovascular system; [8]
  Heart rate; difference from Vehicle treated, Mean: −2.87 beats per min
  Mean arterial blood pressure; difference from Vehicle treated, Mean: −1.39 mmHg
Cardiovascular system; [9]
  Heart rate; difference from Vehicle treated, Mean: −8.51 beats per min
  Mean arterial blood pressure; difference from Vehicle treated, Mean: 0.11 mmHg
Cardiovascular system; [10]
  Heart rate; difference from Vehicle treated, Mean: −3.03 beats per min
  Mean arterial blood pressure; difference from Vehicle treated, Mean: −0.13 mmHg
[4]; highest dose level (6 mg/kg per os)
  effect on the locomotor activity: significant increase
[4]; two lower dose levels (0.6 and 2 mg/kg per os)
  effect on the locomotor activity: not at the two lower dose levels
[5]
  effect on rotarod performance (latency to fall off): neither lisinopril, nor memantine, nor their combination had a significant effect
